Laboratory results from US10123994B2, “Heterocyclic derivative having AMPK-activating activity” (SHIONOGI & CO., LTD., priority 2014, dated 2018).

Target: T1, Human AMPK α2β2γ1 (Homo sapiens, UniProt O43741+P54619+P54646)
T1 construct: The full length cDNAs of human AMPK β2 (NM_005399.3) and human AMPK α2 (NM_006252.3); The full length cDNAs of human AMPK β2 (NM_005399.3); the full length cDNA of human AMPK γ1 (NM_002733.3); 6xHis (N); made in house; host or cells: Escherichia coli BL21 CodonPlus (DE3)-RIL (AMPK); BL21 Star (DE3) (CaMKK2)
T1 sequence (P54646 whole entry): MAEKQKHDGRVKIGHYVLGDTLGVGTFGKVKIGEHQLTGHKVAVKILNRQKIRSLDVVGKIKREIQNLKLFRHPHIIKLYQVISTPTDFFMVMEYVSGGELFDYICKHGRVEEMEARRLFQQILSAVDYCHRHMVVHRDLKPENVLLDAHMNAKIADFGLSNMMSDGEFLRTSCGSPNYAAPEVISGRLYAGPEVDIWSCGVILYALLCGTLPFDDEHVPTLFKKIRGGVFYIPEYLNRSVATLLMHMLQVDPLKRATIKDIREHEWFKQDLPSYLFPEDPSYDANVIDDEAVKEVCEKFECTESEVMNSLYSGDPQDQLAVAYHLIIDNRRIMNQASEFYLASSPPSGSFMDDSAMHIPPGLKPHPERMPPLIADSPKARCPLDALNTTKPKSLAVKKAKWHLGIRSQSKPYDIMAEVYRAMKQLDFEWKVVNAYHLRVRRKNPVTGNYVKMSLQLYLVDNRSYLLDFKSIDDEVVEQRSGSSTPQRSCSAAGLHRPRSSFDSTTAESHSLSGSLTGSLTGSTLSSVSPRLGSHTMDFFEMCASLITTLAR
T1 sequence (O43741 whole entry): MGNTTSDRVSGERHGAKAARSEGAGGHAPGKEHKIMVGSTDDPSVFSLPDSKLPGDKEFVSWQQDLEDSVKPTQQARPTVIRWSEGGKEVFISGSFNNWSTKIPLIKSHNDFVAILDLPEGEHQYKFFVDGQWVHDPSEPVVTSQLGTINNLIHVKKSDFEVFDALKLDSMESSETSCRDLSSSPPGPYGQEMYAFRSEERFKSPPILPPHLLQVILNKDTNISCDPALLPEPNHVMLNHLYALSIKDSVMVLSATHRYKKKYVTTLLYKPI
T1 sequence (P54619 whole entry): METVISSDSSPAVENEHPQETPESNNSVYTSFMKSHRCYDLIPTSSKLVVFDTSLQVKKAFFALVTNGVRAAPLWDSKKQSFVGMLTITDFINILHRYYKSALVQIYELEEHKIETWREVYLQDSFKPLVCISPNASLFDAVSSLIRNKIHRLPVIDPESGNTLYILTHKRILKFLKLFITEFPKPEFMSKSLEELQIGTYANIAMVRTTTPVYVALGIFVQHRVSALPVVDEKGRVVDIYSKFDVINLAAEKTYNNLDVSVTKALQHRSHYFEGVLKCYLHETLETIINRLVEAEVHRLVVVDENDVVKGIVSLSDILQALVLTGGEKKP
Assay: Test Example 2: AMPK activator evaluation, mobility-shift kinase assay after CaMKK2 phosphorylation
Format: biochemical
Conditions: for EC150: compound concentration showing 150% relative to the control (100%); for Emax: maximum rate of increase in activity within the measurement range, control = 100%
Procedure: The full length cDNAs of human AMPK β2 (NM_005399.3) and human AMPK α2 (NM_006252.3) were inserted into the MCS1 and MCS2 of the pETDuet-1 vector to prepare a human AMPK β2 and human AMPK α2 (6× His tag at the 5′ terminus) expressing plasmid. The plasmid was cotransfected with an expression plasmid, in which the full length cDNA of human AMPK γ1 (NM_002733.3) had been inserted into pET28b(+), into BL21 CodonPlus (DE3)-RIL to obtain an expression strain. The expression strain was cultured in TB medium, followed by induction with 0.5 mM IPTG, and cultured at 25° C. for 3 hours and then harvested. After ultrasonication, supernatant was collected and applied to Histrap FF column (GE) and RESOUECE Q column (GE) to prepare 12.5 mg of purified sample containing three types of subunit from 1.8 L of broth.
An expression vector, in which the full length cDNA of human CAMKK β (NM_172226.1) had been inserted into pGEX-6P-3, was transfected into BL21 Star (DE3). The expression strain was cultured in TB medium, followed by induction with 0.5 mM IPTG, and cultured at 25° C. for 3 hours and then harvested. After ultrasonication, supernatant was collected and applied to GSTrap FF column (GE) to prepare 14 mg of GST-fused CAMKK β from 720 ml of broth.
Thus, phosphorylation treatment was carried out as pretreatment.
Human AMPK α2β2γ1 in an amount to give a conversion rate of approximately 10% by reaction for 2 hours, and CaMKK2 in an amount capable of sufficiently imparting activity to AMPK for one hour were mixed in a buffer solution consisting of a 50 mM HEPES-NaOH buffer solution (pH 7.0), 100 mM NaCl, 5 mM magnesium chloride, 0.1% bovine serum albumin, 0.2 mM sodium orthovanadate(V), 1 mM ethylene glycol-bis(2-aminoethyl ether)-N,N,N′,N′-tetraacetic acid (EGTA), 5 mM disodium β-glycerophosphate, 1 mM dithiothreitol and 0.2 mM ATP, and the obtained liquid was left to stand at 25° C. for 1 to 1.5 hours to sufficiently phosphorylate AMPK.
After that, to the enzyme liquid, which had been subjected to phosphorylation treatment, a compound dissolved in DMSO was added so as to have a 1% DMSO concentration. The obtained liquid was left to stand for 10 minutes.
To the liquid, a substrate solution consisting of a 50 mM HEPES-NaOH buffer solution (pH 7.0), 100 mM NaCl, 10 mM magnesium chloride, 0.1% bovine serum albumin, 0.2 mM sodium orthovanadate(V), 1 mM ethylene glycol-bis(2-aminoethyl ether)-N,N,N′,N′-tetraacetic acid (EGTA), 5 mM disodium β-glycerophosphate, 2 mM dithiothreitol, 0.4 mM ATP and 3 μM FL-Peptide 7 (manufactured by Caliper Life Sciences, Inc.) was added in equal amount (10 μl in total). The obtained liquid was allowed to react at 25° C. for 2 hours, and 10 μl of 20 mM EDTA was then added thereto to stop the reaction.
To detect phosphorylated fluorescent substrates, the reaction liquid was applied to a measuring device, LabChip EZ Reader II manufactured by Caliper Life Science, Inc., for detecting fluorescence by using differences in mobility due to differences in charge. The setting conditions for the device were pressure, −1.5 PSI; upstream voltage, −2250 V; downstream voltage, −400 V; post sample buffer sip time, 40 seconds; final delay, 120 seconds; and peak order, Product First.
A conversion rate was calculated from the peak heights of the resulting substrate and product. The conversion rate when not containing a compound was used as a control, and a concentration dependent curve was made by plotting the rate of increase in activity to the control at each concentration of a compound.

SMILES	EC150 [nM]	Emax [%]
O[C@@H]1CO[C@H]2[C@@H]1OC[C@H]2Oc1nc2nc(NCc3ccccc3F)c(Cl)cc2[nH]1 [Compound I-1-109]	48	499
OCCCOc1cc(F)c(CNc2nc3nc(O[C@@H]4CO[C@H]5[C@@H]4OC[C@H]5O)[nH]c3cc2Cl)c(F)c1 [Compound I-1-36]	16	475
CC(=O)NC(C)(C)c1ccc(Oc2nc3nc(NCc4c(F)cccc4F)c(Cl)cc3[nH]2)cn1 [Compound I-1-126]	170	332
CS(=O)(=O)CCCOc1cc(F)c(CNc2nc3nc(O[C@@H]4CO[C@H]5[C@@H]4OC[C@H]5O)[nH]c3cc2Cl)c(F)c1 [Compound I-2-91]	5.4	532
Oc1cccc(F)c1CNc1nc2nc(O[C@@H]3CO[C@H]4[C@@H]3OC[C@H]4O)[nH]c2cc1Cl [Compound I-2-1]	30	588
Cn1cc(-c2cc(F)c(CNc3nc4nc(O[C@@H]5CO[C@H]6[C@@H]5OC[C@H]6O)[nH]c4cc3Cl)c(F)c2)cn1 [Compound I-1-39]	26	506
